Test results from ChEMBL document CHEMBL1139645, “Action of a novel pyrrolo[1,2-c][1.3]benzodiazepine on the viability of Jurkat and neuronal/glial cells” (2005).

Columns and labels:
Jurkat = test: Effect of compound on cell viability in human leukemic Jurkat cells measured as percent reduction of MTT at 570 nm O.D.; Control value 0.47 %; assay type: functional
[1] = Effect of compound on cell viability in non-transformed neuronal/glial cells measured as percent reduction of MTT at […] O.D.; Control value 0.56 %; assay type: functional, Rattus norvegicus
[2] = Effect of compound on cell viability in non-transformed neuronal/glial cells measured as percent reduction of MTT at 570 nm O.D. and exposure to 100 uM NMDA; Control value 0.56 %; assay type: functional, Rattus norvegicus
[3] = Effect of compound on cell viability in non-transformed neuronal/glial cells measured as percent reduction of MTT at 570 nm O.D. at 100 uM; Control value 0.56 %; assay type: functional, Rattus norvegicus

In the case of `O=c1c2ccccc2nc(S)n2cccc12`, the MTT reduction (Jurkat) is reported as 0.41 O.D, the MTT reduction [1] is reported as 0.62 O.D and the MTT reduction [2] is reported as 0.28 O.D.
For `Nc1ccccc1C(=O)c1ccc[nH]1`, the MTT reduction (Jurkat) was 0.39 O.D, the MTT reduction [1] was 0.65 O.D and the MTT reduction [2] was 0.3 O.D.
Work on `Nc1ccccc1Cc1ccc[nH]1` yielded an MTT reduction (Jurkat) of 0.34 O.D, an MTT reduction [1] of 0.38 O.D and an MTT reduction [2] of 0.22 O.D.
Molecule `Oc1c2nccc-2c(S)nc2ccccc12` has an MTT reduction (Jurkat) of 0.45 O.D, an MTT reduction [1] of 0.55 O.D and an MTT reduction [2] of 0.25 O.D.
`CN[C@H](CC(=O)O)C(=O)O` [N-METHYL-D-ASPARTIC ACID (NMDA)] gave an MTT reduction [3] of 0.29 O.D.
In the case of `SC1=Nc2ccccc2Cc2cccn21`, the MTT reduction (Jurkat) is reported as 0.22 O.D, the MTT reduction [1] is reported as 0.58 O.D and the MTT reduction [2] is reported as 0.17 O.D.
